Measurements taken from PubChem BioAssay (NCI).
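Tested at 5 concentrations; 48 h exposure; 96-well plates; endpoints linearly interpolated, else capped at highest concentration. GI50 marks 50% less growth. The concentration for full growth arrest is given as TGI.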

Tests used:
Assay in all cases: inhibition of tumour cell growth, NCI panel, 48 h
[1] = test system: MCF7 breast
[2] = test system: EKVX NSCLC
[3] = test system: UACC-62 melanoma
[4] = test system: SNB-75 CNS
[5] = test system: TK-10 renal
[6] = test system: T-47D breast
[7] = test system: NCI-H23 lung
[8] = test system: OVCAR-8 ovarian
[9] = test system: SN12C renal
[10] = test system: SNB-19 CNS
[11] = test system: K-562 leukemia
[12] = test system: HT29 colon
[13] = test system: MOLT-4 leukemia
[14] = test system: A549 NSCLC
[15] = test system: KM12 colon
[16] = test system: SF-295 CNS
[17] = test system: UO-31 renal
[18] = test system: LOX IMVI melanoma
[19] = test system: CCRF-CEM leukemia
[20] = test system: HL-60(TB) leukemia
[21] = test system: RPMI-8226 leukemia
[22] = test system: OVCAR-4 ovarian
[23] = test system: SW-620 colon
[24] = test system: COLO 205 colon
[25] = test system: SK-MEL-5 melanoma
[26] = test system: CAKI-1 renal
[27] = test system: SK-MEL-2 melanoma
[28] = test system: OVCAR-5 ovarian
[29] = test system: MDA-MB-231 breast
[30] = test system: RXF 393 renal
[31] = test system: NCI/ADR-RES ovarian
[32] = test system: ACHN renal
[33] = test system: HS 578T breast
[34] = test system: 786-0 renal
[35] = test system: OVCAR-3 ovarian
[36] = test system: NCI-H226 lung
[37] = test system: SF-539 CNS
[38] = test system: NCI-H522 lung
[39] = test system: IGROV1 ovarian
[40] = test system: BT-549 breast
[41] = test system: UACC-257 melanoma
[42] = test system: HOP-92 NSCLC
[43] = test system: SK-MEL-28 melanoma
[44] = test system: DU-145 prostate
[45] = test system: HCC-2998 colon
[46] = test system: U251 CNS
[47] = test system: HOP-62 NSCLC
[48] = test system: A498 renal
[49] = test system: MDA-MB-435
[50] = test system: NCI-H460 lung
[51] = test system: PC-3 prostate
[52] = test system: MALME-3M melanoma
[53] = test system: SF-268 CNS
[54] = test system: M14 melanoma
[55] = test system: SK-OV-3 ovarian
[56] = test system: HCT-15 colon
[57] = test system: HCT-116 colon

Q: O=C1C=CC2(O)OC/C(=C\c3ccccc3)C(O)=C2C1=O (centres undefined) was tested. Which GI50 [1] did it give?
A: 1220 nM

Q: What about the TGI [1] of the same molecule?
A: 10200 nM

Q: What about the GI50 [2] of the same molecule?
A: 1900 nM

Q: And the TGI [2]?
A: 5430 nM

Q: What about the GI50 [3] of the same molecule?
A: 1510 nM

Q: What about the TGI [3] of the same molecule?
A: 3760 nM

Q: What about the GI50 [4] of the same molecule?
A: 1950 nM

Q: And the TGI [4]?
A: 9680 nM

Q: What about the GI50 [5] of the same molecule?
A: 2990 nM

Q: And the TGI [5]?
A: 7840 nM

Q: What about the GI50 [6] of the same molecule?
A: 2470 nM

Q: What about the TGI [6] of the same molecule?
A: 10600 nM

Q: And the GI50 [7]?
A: 1650 nM

Q: And the TGI [7]?
A: 3380 nM

Q: And the GI50 [8]?
A: 2710 nM

Q: What about the TGI [8] of the same molecule?
A: 10300 nM

Q: What about the GI50 [9] of the same molecule?
A: 1210 nM

Q: And the TGI [9]?
A: 8380 nM

Q: What about the GI50 [10] of the same molecule?
A: 2650 nM

Q: What about the TGI [10] of the same molecule?
A: 9700 nM

Q: What about the GI50 [11] of the same molecule?
A: 476 nM

Q: And the TGI [11]?
A: > 100000 nM

Q: What about the GI50 [12] of the same molecule?
A: 3620 nM

Q: What about the TGI [12] of the same molecule?
A: 11800 nM

Q: And the GI50 [13]?
A: 791 nM

Q: And the TGI [13]?
A: 14400 nM

Q: What about the GI50 [14] of the same molecule?
A: 2520 nM

Q: And the TGI [14]?
A: 6880 nM

Q: And the GI50 [15]?
A: 1400 nM

Q: What about the TGI [15] of the same molecule?
A: 3020 nM

Q: What about the GI50 [16] of the same molecule?
A: 2580 nM

Q: And the TGI [16]?
A: 6320 nM

Q: And the GI50 [17]?
A: 722 nM

Q: And the TGI [17]?
A: 2030 nM

Q: What about the GI50 [18] of the same molecule?
A: 1400 nM

Q: And the TGI [18]?
A: 2760 nM

Q: What about the GI50 [19] of the same molecule?
A: 534 nM

Q: What about the TGI [19] of the same molecule?
A: 25900 nM

Q: What about the GI50 [20] of the same molecule?
A: 517 nM

Q: And the TGI [20]?
A: 7760 nM

Q: What about the GI50 [21] of the same molecule?
A: 285 nM

Q: And the TGI [21]?
A: 838 nM

Q: What about the GI50 [22] of the same molecule?
A: 2370 nM

Q: What about the TGI [22] of the same molecule?
A: 8870 nM

Q: What about the GI50 [23] of the same molecule?
A: 1600 nM

Q: And the TGI [23]?
A: 3680 nM

Q: And the GI50 [24]?
A: 2630 nM

Q: What about the TGI [24] of the same molecule?
A: 6330 nM

Q: What about the GI50 [25] of the same molecule?
A: 1570 nM

Q: And the TGI [25]?
A: 2980 nM

Q: And the GI50 [26]?
A: 1590 nM

Q: What about the TGI [26] of the same molecule?
A: 3200 nM

Q: And the GI50 [27]?
A: 2020 nM

Q: And the TGI [27]?
A: 5770 nM

Q: What about the GI50 [28] of the same molecule?
A: 2170 nM

Q: What about the TGI [28] of the same molecule?
A: 4500 nM

Q: What about the GI50 [29] of the same molecule?
A: 648 nM

Q: And the TGI [29]?
A: 3510 nM

Q: And the GI50 [30]?
A: 1500 nM

Q: And the TGI [30]?
A: 2950 nM

Q: What about the GI50 [31] of the same molecule?
A: 2570 nM

Q: And the TGI [31]?
A: 12700 nM

Q: And the GI50 [32]?
A: 1530 nM

Q: What about the TGI [32] of the same molecule?
A: 2920 nM

Q: What about the GI50 [33] of the same molecule?
A: 259 nM

Q: And the TGI [33]?
A: 3000 nM

Q: What about the GI50 [34] of the same molecule?
A: 1300 nM

Q: And the TGI [34]?
A: 3040 nM

Q: And the GI50 [35]?
A: 1140 nM

Q: What about the TGI [35] of the same molecule?
A: 3230 nM

Q: What about the GI50 [36] of the same molecule?
A: 3110 nM

Q: What about the TGI [36] of the same molecule?
A: 31400 nM

Q: What about the GI50 [37] of the same molecule?
A: 1240 nM

Q: What about the TGI [37] of the same molecule?
A: 2870 nM

Q: And the GI50 [38]?
A: 196 nM

Q: What about the TGI [38] of the same molecule?
A: 535 nM

Q: And the GI50 [39]?
A: 1830 nM

Q: And the TGI [39]?
A: 9700 nM

Q: What about the GI50 [40] of the same molecule?
A: 2020 nM

Q: And the TGI [40]?
A: 6980 nM

Q: What about the GI50 [41] of the same molecule?
A: 1820 nM

Q: What about the TGI [41] of the same molecule?
A: 4500 nM

Q: What about the GI50 [42] of the same molecule?
A: 1270 nM

Q: And the TGI [42]?
A: 3590 nM

Q: What about the GI50 [43] of the same molecule?
A: 2590 nM

Q: What about the TGI [43] of the same molecule?
A: 6410 nM

Q: What about the GI50 [44] of the same molecule?
A: 2510 nM

Q: And the TGI [44]?
A: 9360 nM

Q: What about the GI50 [45] of the same molecule?
A: 1820 nM

Q: What about the TGI [45] of the same molecule?
A: 3320 nM

Q: And the GI50 [46]?
A: 1390 nM

Q: What about the TGI [46] of the same molecule?
A: 3030 nM

Q: And the GI50 [47]?
A: 2890 nM

Q: And the TGI [47]?
A: 9320 nM

Q: And the GI50 [48]?
A: 10800 nM

Q: And the TGI [48]?
A: 22800 nM

Q: And the GI50 [49]?
A: 1950 nM

Q: And the TGI [49]?
A: 4740 nM

Q: What about the GI50 [50] of the same molecule?
A: 1980 nM

Q: What about the TGI [50] of the same molecule?
A: 4320 nM

Q: What about the GI50 [51] of the same molecule?
A: 1350 nM

Q: And the TGI [51]?
A: 4190 nM

Q: What about the GI50 [52] of the same molecule?
A: 1510 nM

Q: What about the TGI [52] of the same molecule?
A: 5150 nM

Q: And the GI50 [53]?
A: 2100 nM

Q: What about the TGI [53] of the same molecule?
A: 7080 nM

Q: What about the GI50 [54] of the same molecule?
A: 2950 nM

Q: And the TGI [54]?
A: 11700 nM

Q: And the GI50 [55]?
A: 15200 nM

Q: And the TGI [55]?
A: > 100000 nM

Q: What about the GI50 [56] of the same molecule?
A: 868 nM

Q: And the TGI [56]?
A: 3380 nM

Q: And the GI50 [57]?
A: 1880 nM

Q: What about the TGI [57] of the same molecule?
A: 4080 nM
